In ChEMBL document CHEMBL2424566, “Preparation of betulinic acid derivatives by chemical and biotransformation methods and determination of cytotoxicity against selected cancer cell lines” (Eur J Med Chem, 2013):
Calls of active or inactive are those of the source. The calls are words filed in the database; no cut-off is given here.

How the values were obtained:
[1] = tested on: A549; experiment: Cytotoxicity against human A549 cells assessed as cell viability after 96 hrs by SRB assay; type: functional, cell-based; conditions: A549, 96 h
[2] = tested on: 8505C; experiment: Cytotoxicity against human 8505C cells assessed as cell viability after 96 hrs by SRB assay; type: functional, cell-based
[3] = tested on: A2780; experiment: Cytotoxicity against human A2780 cells assessed as cell viability after 96 hrs by SRB assay; type: functional, cell-based; conditions: A2780, 96 h
[4] = Cytotoxicity against human 518A2 cells assessed as cell viability after 96 hrs by SRB assay; type: functional, cell-based; conditions: 518A2, 96 h
[5] = tested on: MCF7; experiment: Cytotoxicity against human MCF7 cells assessed as cell viability after 96 hrs by SRB assay; type: functional, cell-based; conditions: MCF7, 96 h
[6] = tested on: A2780; experiment: Selectivity index, ratio of IC50 for human CCD-18Co cells to IC50 for human A2780 cells; type: functional
[7] = Cytotoxicity against human CCD-18Co cells assessed as cell viability after 96 hrs by SRB assay; type: cell-based
[8] = tested on: A549; experiment: Induction of apoptosis in human A549 cells assessed as chromatin condensation at IC80 after 24 hrs by acridine orange/ethidium bromide staining-based fluorescence microscopic analysis; type: functional, cell-based
[9] = Selectivity index, ratio of IC50 for human CCD-18Co cells to IC50 for human 518A2 cells; type: functional
[10] = tested on: A549; experiment: Induction of apoptosis in human A549 cells assessed as apoptotic bodies at IC80 after 24 hrs by acridine orange/ethidium bromide staining-based fluorescence microscopic analysis; type: functional, cell-based
[11] = tested on: MCF7; experiment: Selectivity index, ratio of IC50 for human CCD-18Co cells to IC50 for human MCF7 cells; type: functional
[12] = tested on: A549; experiment: Induction of apoptosis in human A549 cells assessed as membrane blebbing at IC80 after 24 hrs by acridine orange/ethidium bromide staining-based fluorescence microscopic analysis; type: functional, cell-based
[13] = tested on: A549; experiment: Induction of apoptosis in human A549 cells assessed as DNA fragmentation at IC80 after 24 hrs by acridine orange/ethidium bromide staining-based fluorescence microscopic analysis; type: functional, cell-based
[14] = tested on: A549; experiment: Cell cycle arrest in human A549 cells assessed as accumulation at G0/G1 phase at IC80 after 24 hrs by propidium iodide staining-based flow cytometric analysis (49.5 +/- 2.51%); type: functional
[15] = tested on: A549; experiment: Cell cycle arrest in human A549 cells assessed as accumulation at G2/M phase at IC80 after 48 hrs by propidium iodide staining-based flow cytometric analysis (26 +/- 1.1%); type: functional
[16] = tested on: A549; experiment: Cell cycle arrest in human A549 cells assessed as accumulation at G0/G1 phase at IC80 by propidium iodide staining-based flow cytometric analysis; type: functional; conditions: TDE = time-dependent effect
[17] = tested on: A549; experiment: Cell cycle arrest in human A549 cells assessed as accumulation at subG1 phase at IC80 after 48 hrs by propidium iodide staining-based flow cytometric analysis (3.23 +/- 0.25%); type: functional
[18] = tested on: A549; experiment: Cell cycle arrest in human A549 cells assessed as accumulation at G2/M phase at IC80 by propidium iodide staining-based flow cytometric analysis; type: functional; conditions: TDE = time-dependent effect
[19] = tested on: A549; experiment: Cell cycle arrest in human A549 cells assessed as accumulation at S phase at IC80 after 48 hrs by propidium iodide staining-based flow cytometric analysis (19.1 +/- 1.05%); type: functional
[20] = tested on: A549; experiment: Cell cycle arrest in human A549 cells assessed as accumulation at G2/M phase at IC80 after 24 hrs by propidium iodide staining-based flow cytometric analysis (24.9 +/- 1.46%); type: functional
[21] = tested on: A549; experiment: Cell cycle arrest in human A549 cells assessed as accumulation at G0/G1 phase at IC80 after 48 hrs by propidium iodide staining-based flow cytometric analysis (48.5 +/- 1.82%); type: functional
[22] = tested on: A549; experiment: Induction of apoptosis in human A549 cells assessed as early apoptosis and secondary necrosis at IC80 after 24 hrs by annexin V-FITC staining-based flow cytometric analysis relative to control; type: functional
[23] = tested on: A549; experiment: Induction of apoptosis in human A549 cells assessed as occurrence of typical DNA ladders at IC80 after 72 hrs by agarose gel electrophoresis; type: functional, cell-based
[24] = Selectivity index, ratio of IC50 for human CCD-18Co cells to IC50 for human 8505C cells; type: functional, 8505C;CCD-18Co
[25] = tested on: A549; experiment: Cell cycle arrest in human A549 cells assessed as accumulation at S phase at IC80 after 24 hrs by propidium iodide staining-based flow cytometric analysis (20.2 +/- 0.81%); type: functional
[26] = tested on: A549; experiment: Cell cycle arrest in human A549 cells assessed as accumulation at subG1 phase at IC80 by propidium iodide staining-based flow cytometric analysis; type: functional; conditions: TDE = time-dependent effect
[27] = tested on: A549; experiment: Cell cycle arrest in human A549 cells assessed as accumulation at subG1 phase at IC80 after 24 hrs by propidium iodide staining-based flow cytometric analysis (2.73 +/- 0.49%); type: functional
[28] = tested on: A549; experiment: Cell cycle arrest in human A549 cells assessed as accumulation at S phase at IC80 by propidium iodide staining-based flow cytometric analysis; type: functional; conditions: TDE = time-dependent effect
[29] = tested on: A549; experiment: Selectivity index, ratio of IC50 for human CCD-18Co cells to IC50 for human A549 cells; type: functional
[30] = tested on: A549; experiment: Induction of apoptosis in human A549 cells assessed as early apoptosis and secondary necrosis at IC80 after 48 hrs by annexin V-FITC staining-based flow cytometric analysis relative to control; type: functional

| SMILES | IC50 [1] | IC50 [2] | IC50 [3] | IC50 [4] | IC50 [5] | IC50 [7] | Activity [8] | Activity [10] | Activity [12] | Activity [13] | other results |
| --- | --- | --- | --- | --- | --- | --- | --- | --- | --- | --- | --- |
| C[C@@H](C=O)[C@@H]1CC[C@]2(C(=O)O)CC[C@]3(C)[C@H](CC[C@@H]4[C@@]5(C)CCC(O)C(C)(C)[C@@H]5CC[C@]43C)[C@@H]12 (stereo partly specified) | 46.9 µM | 55.2 µM | 50.3 µM | 52.9 µM | 44.4 µM | – | – | – | – | – | – |
| C=C(C)[C@@H]1CC[C@]2(C(=O)O)CC[C@]3(C)[C@H](CC[C@@H]4[C@@]5(C)CCC(=O)C(C)(C)[C@@H]5CC[C@]43C)[C@@H]12 [BETUNOLIC ACID] | 10.4 µM | 14 µM | 5.97 µM | 12.9 µM | – | – | – | – | – | – | – |
| C=C(C)[C@@H]1CC[C@]2(C(=O)OC)CC[C@]3(C)[C@H](CC[C@@H]4[C@@]5(C)CC/C(=N\Nc6ccc([N+](=O)[O-])cc6[N+](=O)[O-])C(C)(C)[C@@H]5CC[C@]43C)[C@@H]12 | > 100 µM | > 100 µM | > 100 µM | > 100 µM | > 100 µM | – | – | – | – | – | – |
| CC(=O)[C@@H]1CC[C@]2(C(=O)O)CC[C@]3(C)[C@H](CC[C@@H]4[C@@]5(C)CCC(=O)C(C)(C)[C@@H]5CC[C@]43C)[C@@H]12 | 59.1 µM | 64.1 µM | 16.1 µM | 43.5 µM | 47.1 µM | – | – | – | – | – | – |
| C[C@H](C=O)[C@@H]1CC[C@]2(C(=O)O)CC[C@]3(C)[C@H](CC[C@@H]4[C@@]5(C)CC/C(=N\Nc6ccc([N+](=O)[O-])cc6[N+](=O)[O-])C(C)(C)[C@@H]5CC[C@]43C)[C@@H]12 | 2 µM | 2.17 µM | 1.81 µM | 1.76 µM | 2.41 µM | – | – | – | – | – | – |
| C=C(C)[C@@H]1CC[C@]2(C(=O)O)CC[C@]3(C)[C@H](CC[C@@H]4[C@@]5(C)CC/C(=N\Nc6ccc([N+](=O)[O-])cc6[N+](=O)[O-])C(C)(C)[C@@H]5CC[C@]43C)[C@@H]12 | 21.4 µM | 25.9 µM | 6.22 µM | 13.5 µM | 8.17 µM | 18.1 µM | Active | Active | Active | Active | Ratio IC50 [6]: 1; Ratio IC50 [9]: 1; Ratio IC50 [11]: 1 |
| CC(=O)[C@@H]1CC[C@]2(C(=O)O)CC[C@]3(C)[C@H](CC[C@@H]4[C@@]5(C)CC[C@H](O)C(C)(C)[C@@H]5CC[C@]43C)[C@@H]12 [PLATANIC ACID] | 75.4 µM | 93.6 µM | 68 µM | 97.5 µM | 63.2 µM | – | – | – | – | – | – |
| CC(=O)[C@@H]1CC[C@]2(C(=O)O)CC[C@]3(C)[C@H](CC[C@@H]4[C@@]5(C)CC/C(=N\Nc6ccc([N+](=O)[O-])cc6[N+](=O)[O-])C(C)(C)[C@@H]5CC[C@]43C)[C@@H]12 | 12.1 µM | 16.9 µM | 9.1 µM | 14.6 µM | 7.52 µM | 43.5 µM | Active | Active | Active | Active | – |
| C/C(=N\Nc1ccc([N+](=O)[O-])cc1[N+](=O)[O-])[C@@H]1CC[C@]2(C(=O)O)CC[C@]3(C)[C@H](CC[C@@H]4[C@@]5(C)CC/C(=N\Nc6ccc([N+](=O)[O-])cc6[N+](=O)[O-])C(C)(C)[C@@H]5CC[C@]43C)[C@@H]12 | > 100 µM | > 100 µM | 53.8 µM | > 100 µM | 60.2 µM | – | – | – | – | – | – |
| C[C@@H](C=O)[C@@H]1CC[C@]2(C(=O)O)CC[C@]3(C)[C@H](CC[C@@H]4[C@@]5(C)CC/C(=N\Nc6ccc([N+](=O)[O-])cc6[N+](=O)[O-])C(C)(C)[C@@H]5CC[C@]43C)[C@@H]12 | 1.79 µM | 2.44 µM | 1.76 µM | 1.91 µM | 2.51 µM | 8.3 µM | Active | Active | Active | Active | Activity [14]: 60.9%; Activity [15]: 15.9%; Ratio IC50 [6]: 3; Activity [16]: tde; Activity [17]: 18.3%; Activity [18]: tde; Activity [19]: 14.6%; Activity [20]: 13.9%; Ratio IC50 [9]: 3; Activity [21]: 49.7%; Ratio IC50 [11]: 3; Activity [22]: 12%; Activity [23]: Active; Ratio IC50 [24]: 3; Activity [25]: 14.8%; Activity [26]: tde; Activity [27]: 8.77%; Activity [28]: tde; Ratio IC50 [29]: 3; Activity [30]: 8% |
| C=C(C)[C@@H]1CC[C@]2(C(=O)OC)CC[C@]3(C)[C@H](CC[C@@H]4[C@@]5(C)CCC(=O)C(C)(C)[C@@H]5CC[C@]43C)[C@@H]12 [METHYL BETULONATE] | > 100 µM | > 100 µM | 36.2 µM | 68 µM | 98.1 µM | – | – | – | – | – | – |
| C/C(=N\Nc1ccc([N+](=O)[O-])cc1[N+](=O)[O-])[C@@H]1CC[C@]2(C(=O)O)CC[C@]3(C)[C@H](CC[C@@H]4[C@@]5(C)CC[C@H](O)C(C)(C)[C@@H]5CC[C@]43C)[C@@H]12 | 7.62 µM | 8.72 µM | 11.3 µM | 9.09 µM | 6.84 µM | 56.7 µM | Active | Active | Active | Active | Ratio IC50 [6]: 5; Ratio IC50 [9]: 5; Ratio IC50 [11]: 5; Ratio IC50 [24]: 5; Ratio IC50 [29]: 5 |
| C=C(C)[C@@H]1CC[C@]2(C(=O)O)CC[C@]3(C)[C@H](CC[C@@H]4[C@@]5(C)CC[C@H](O)C(C)(C)[C@@H]5CC[C@]43C)[C@@H]12 [BETULINIC ACID] | 13.3 µM | 12.6 µM | 8.75 µM | 14.8 µM | 14 µM | 43.6 µM | Active | Active | Active | Active | Activity [14]: 36.7%; Activity [15]: 0.17%; Activity [16]: tde; Activity [17]: 98.5%; Activity [18]: tde; Activity [19]: 0.33%; Activity [20]: 20.1%; Activity [21]: 0.96%; Activity [22]: 32%; Activity [25]: 20.1%; Activity [26]: tde; Activity [27]: 18.8%; Activity [28]: tde; Activity [30]: >50% |
| C=C(C)[C@@H]1CC[C@]2(C(=O)OC)CC[C@]3(C)[C@H](CC[C@@H]4[C@@]5(C)CC[C@H](O)C(C)(C)[C@@H]5CC[C@]43C)[C@@H]12 [METHYL BETULINATE] | 17.2 µM | 17.2 µM | 16.3 µM | 16.9 µM | 16.9 µM | – | – | – | – | – | – |
| C/C(=N/O)[C@@H]1CC[C@]2(C(=O)O)CC[C@]3(C)[C@H](CC[C@@H]4[C@@]5(C)CC[C@H](O)C(C)(C)[C@@H]5CC[C@]43C)[C@@H]12 | 53.7 µM | 55.9 µM | 54.4 µM | 63.2 µM | 52.2 µM | – | – | – | – | – | – |
| C=C(C)[C@@H]1CC[C@]2(C(=O)OCc3ccccc3)CC[C@]3(C)[C@H](CC[C@@H]4[C@@]5(C)CC/C(=N\Nc6ccc([N+](=O)[O-])cc6[N+](=O)[O-])C(C)(C)[C@@H]5CC[C@]43C)[C@@H]12 | > 100 µM | > 100 µM | 66.7 µM | > 100 µM | > 100 µM | – | – | – | – | – | – |
